# Results as given in patent US9446061B2, “Composition containing antibiotics and lysophosphatidylcholine for boosting immunity or treatment of bacterial infections” (priority 2011, dated 2016).
# What was measured:
# [1] = Body weight of CPA-CLP mice (Example 9); settings: LPC 1, DW286 0.5, Mix 0.75 mg/kg
# Procedure: In CPA-CLP model, body weight and mortalities were measured once a day for 5 days with automatic electronic balances (Sartorius Co., Ltd., USA), once a day for 2 days in CPA-treated model. All animals were overnight fasted at CPA dosing, CLP or initial dosing to reduce differences from feeding. In addition, body weight gains were calculated as follows:
# CPA-CLP Model: Body weight at sacrifice—at CLP(5 days)
# Then, mortalities, changes in thymus and spleen weights, changes in white blood cell (WBC) number, and changes in thymic and splenic CD3+, CD4+, CD8+, and TNF-α+ cell numbers, were evaluated together with changes in bone marrow polychromatic erythrocytes contain micronuclei (MNPCE) number.
# (§3) Appropriate doses of candidate materials were dissolved in 5% human serum albumin, and subcutaneously dosed at 10 ml/kg (of body weight), 4 times 12-hr intervals from 6 hrs after CLP or 24 hrs after last CPA-dosing, respectively. In the INTACT, CPA, or CPA-CLP control groups, an equal volume of 5% human serum albumin was dosed by the same procedure.
# CPA-CLP mice = assay: Mortality of CPA-CLP mice, LPC and DW286AA alone or combined (Example 9); s.c. 4 times 12-hr intervals from 6 hrs after CLP; format: in vivo, ICR mice; settings: for Survival rate: LPC 1, DW286 0.5, Mix 0.75 mg/kg; for survival rates (survivors/total in brackets), Table 13: mg/kg: LPC 1, LPC + DW286 0.5 + 0.25, DW286/LPC 0.5/1.0, LPC/DW286 1.0/0.5, DW286 0.5
# From the text: (§1) CPA is well known as an immunosuppressive agent. […] Then, the abdomen was closed following the general procedure.
# [2] = system: CPA-induced immunosuppressive mice; assay: Thymus and spleen organ weights in CPA-treated mice; format: in vivo, ICR mice; settings: LPC 1, DW286 0.5, Mix 0.75 mg/kg
# Procedure: At sacrifice of CPA-treated model, the wet-weights of spleen and thymus were measured and regarded as absolute weight and then relative organ weight (% of body weight) was calculated as follow:
# =[(Absolute organ weights/Body weight at sacrifice individual)×100]
# [3] = system: CPA-CLP sepsis mouse model; assay: Effects of LPC, LPC isomers, Xigris and DW286aa on mortalities/survivabilities in CPA-CLP sepsis mouse model (SEP009); single i.v. 6 hrs after CLP; format: in vivo
# Procedure: as §1
# (§2) Then, body weight and mortality changes were observed.
# In the Sham and CLP control groups, 10 ml/kg of only sterile physiological saline was single intravenously dosed.
# blood WBC = assay: Blood WBC numbers and differential counts in CPA-treated mice; format: in vivo, ICR mice; settings: LPC 1, DW286 0.5, Mix 0.75 mg/kg
# Procedure: Blood were collected at sacrifice of CPA-treated model from vena cava and total blood leukocyte numbers were calculated using counting chamber, diluting pipette and Türk solution as dilution solution. All numbers were calculated as ×10^3/mm^3. In addition, cell numbers of lymphocytes, eosinophils, neutrophils, monocytes and basophils were calculated among 100 total leukocytes in smear blood samples stained with Giemsa.
# [4] = system: CPA-CLP sepsis mouse model; assay: Combination effects of LPC and antibiotics (colistin, tobramycin, fusidin) in CPA-CLP sepsis mouse model (SEP013); single i.v. 6 hrs after CLP; format: in vivo, ICR mice; settings: mpk: LPC 5, DW286aa 5, Colistin 5, Tobra 4, Fusidin 80, LPC + Colistin 5 + 5, LPC + Tobra 5 + 4, LPC + Fusidin 5 + 80
# From the text: as §1, §2
# [5] = system: bone marrow polychromatic erythrocytes; assay: Bone marrow MNPCE and PCE/(PCE+NCE) in CPA-treated mice; settings: LPC 1, DW286 0.5, Mix 0.75 mg/kg
# Procedure: In Intact control animals, equal volume of saline was only dosed instead of CPA with same methods.
# In brief, bone marrow cells were collected from aforementioned femur in 3 ml of inactivated fetal bovine serum (GIBCO BRL, USA), centrifuged, and smeared on slide. Preparations were dried, and fixed by submerging in absolute methanol (for 10˜20 min). Fixed slides were stained as follow:
# Slides were randomly coded and examined under×1000 magnification by two different experts. Small round or oval shaped bodies, size of which ranging about ⅕ to 1/20 of diameter of PCE, were counted as micronuclei. Attention was given to discriminate micronuclei from artifacts. Results were expressed as the number of MNPCEs in 1000 PCEs. Mean number of MNPCE±S.D. was calculated for each treatment group.
# as §3
# [6] = LPC, LPC18:0, LPC18:1, LPA 5 mpk, Xigris 0.4 mpk, DW286aa 10 mpk, 1st CPA treat
# [7] = LPC, LPC18:0, LPC18:1, LPA 5 mpk, Xigris 0.4 mpk, DW286aa 10 mpk, 2nd CPA treat
# [8] = LPC, LPC18:0, LPC18:1, LPA 5 mpk, Xigris 0.4 mpk, DW286aa 10 mpk, At CLP (day 0)
# [9] = LPC, LPC18:0, LPC18:1, LPA 5 mpk, Xigris 0.4 mpk, DW286aa 10 mpk, Day 1
# [10] = LPC, LPC18:0, LPC18:1, LPA 5 mpk, Xigris 0.4 mpk, DW286aa 10 mpk, Day 2
# [11] = LPC, LPC18:0, LPC18:1, LPA 5 mpk, Xigris 0.4 mpk, DW286aa 10 mpk, Day 3
# [12] = LPC, LPC18:0, LPC18:1, LPA 5 mpk, Xigris 0.4 mpk, DW286aa 10 mpk, Day 4
# [13] = LPC, LPC18:0, LPC18:1, LPA 5 mpk, Xigris 0.4 mpk, DW286aa 10 mpk, Day 5
# [14] = LPC, LPC18:0, LPC18:1, LPA 5 mpk, Xigris 0.4 mpk, DW286aa 10 mpk, Day 6
# [15] = LPC, LPC18:0, LPC18:1, LPA 5 mpk, Xigris 0.4 mpk, DW286aa 10 mpk, Day 7
# [16] = LPC, LPC18:0, LPC18:1, LPA 5 mpk, Xigris 0.4 mpk, DW286aa 10 mpk, Day 8
# [17] = LPC, LPC18:0, LPC18:1, LPA 5 mpk, Xigris 0.4 mpk, DW286aa 10 mpk, Day 9
# [18] = LPC, LPC18:0, LPC18:1, LPA 5 mpk, Xigris 0.4 mpk, DW286aa 10 mpk, Day 10
# [19] = LPC, LPC18:0, LPC18:1, LPA 5 mpk, Xigris 0.4 mpk, DW286aa 10 mpk, Total
# [20] = Xigris 2 mpk, DW286aa 20 mpk, 1st CPA treat
# [21] = Xigris 2 mpk, DW286aa 20 mpk, 2nd CPA treat
# [22] = Xigris 2 mpk, DW286aa 20 mpk, At CLP (day 0)
# [23] = Xigris 2 mpk, DW286aa 20 mpk, Day 1
# [24] = Xigris 2 mpk, DW286aa 20 mpk, Day 2
# [25] = Xigris 2 mpk, DW286aa 20 mpk, Day 3
# [26] = Xigris 2 mpk, DW286aa 20 mpk, Day 4
# [27] = Xigris 2 mpk, DW286aa 20 mpk, Day 5
# [28] = Xigris 2 mpk, DW286aa 20 mpk, Day 6
# [29] = Xigris 2 mpk, DW286aa 20 mpk, Day 7
# [30] = Xigris 2 mpk, DW286aa 20 mpk, Day 8
# [31] = Xigris 2 mpk, DW286aa 20 mpk, Day 9
# [32] = Xigris 2 mpk, DW286aa 20 mpk, Day 10
# [33] = Xigris 2 mpk, DW286aa 20 mpk, Total
structure (smiles),measurement,setting,value
"CON=C1CN(c2nc3c(cc2F)c(=O)c(C(=O)O)cn3C2CC2)CC1(C)CN.Cl (stereo not drawn) [DW286aa, 7-[3-(aminomethyl)-4-(methoxyimino)-3-methyltetrahydro-1H-1-pyrrolyl]-1-cyclopropyl-6-fluoro-4-oxo-1,4-dihydro[1,8]naphthyridine-3-carboxylic acid hydrochloric acid salt]",Body weight,[1]; 1 day after CLP,31.50 ± 1.34 g
same,Body weight,[1]; 2 days after CLP,29.88 ± 0.98 g
same,Body weight,[1]; 3 days after CLP,30.97 ± 0.99 g
same,Body weight,[1]; At CLP (overnight fasted),33.77 ± 1.42 g
same,Body weight,[1]; At First CPA dosing (overnight fasted),34.32 ± 1.32 g
same,Survival rate,CPA-CLP mice; 1 day after CLP,100%
same,"survival rates (survivors/total in brackets), Table 13",CPA-CLP mice; 1 day after dosing,100 (9/9)
same,Survival rate,CPA-CLP mice; 2 days after CLP,44.44%
same,"survival rates (survivors/total in brackets), Table 13",CPA-CLP mice; 2 days after dosing,44 (4/9)
same,Survival rate,CPA-CLP mice; 3 days after CLP,33.33%
same,"survival rates (survivors/total in brackets), Table 13",CPA-CLP mice; 3 days after dosing,33 (3/9)
same,Survival rate,CPA-CLP mice; 4 days after CLP,0%
same,"survival rates (survivors/total in brackets), Table 13",CPA-CLP mice; 4 days after dosing,0 (0/9)
same,Survival rate,CPA-CLP mice; 5 days after CLP,0%
same,Survival rate,CPA-CLP mice; At CLP,100%
same,"survival rates (survivors/total in brackets), Table 13",CPA-CLP mice; Dosing Day 0,100 (9/9)
same,Survival rate,CPA-CLP mice; Total,100%
same,"Spleen weight, Relative",[2]; % of body weight at sacrifice,0.117 ± 0.023 %
same,"Thymus weight, Relative",[2]; % of body weight at sacrifice,0.082 ± 0.018 %
same,"absolute splenic weights, change compared to CPA control",[2],−7.08%
same,"absolute thymic weights, change compared to CPA control",[2],−2.73%
same,"relative splenic weights, change compared to CPA control",[2],−7.46%
same,"relative thymic weights, change compared to CPA control",[2],−3.12%
same,"Spleen weight, Absolute",[2]; at sacrifice,0.045 ± 0.009 g
same,"Thymus weight, Absolute",[2]; at sacrifice,0.032 ± 0.008 g
same,Mortalities,[3]; [6],0
same,survivabilities,[3]; [6],100%
same,Mortalities,[3]; [7],0
same,survivabilities,[3]; [7],100%
same,Mortalities,[3]; [8],0
same,survivabilities,[3]; [8],100%
same,Mortalities,[3]; [9],1
same,survivabilities,[3]; [9],90%
same,Mortalities,[3]; [10],2
same,survivabilities,[3]; [10],70%
same,Mortalities,[3]; [11],0
same,survivabilities,[3]; [11],70%
same,Mortalities,[3]; [12],0
same,survivabilities,[3]; [12],70%
same,Mortalities,[3]; [13],0
same,survivabilities,[3]; [13],70%
same,Mortalities,[3]; [14],0
same,survivabilities,[3]; [14],70%
same,Mortalities,[3]; [15],2
same,survivabilities,[3]; [15],50%
same,Mortalities,[3]; [16],1
same,survivabilities,[3]; [16],40%
same,Mortalities,[3]; [17],1
same,survivabilities,[3]; [17],30%
same,Mortalities,[3]; [18],0
same,survivabilities,[3]; [18],30%
same,Mortalities,[3]; [19],7
same,survivabilities,[3]; [19],30%
same,Mortalities,[3]; [20],0
same,survivabilities,[3]; [20],100%
same,Mortalities,[3]; [21],0
same,survivabilities,[3]; [21],100%
same,Mortalities,[3]; [22],0
same,survivabilities,[3]; [22],100%
same,Mortalities,[3]; [23],0
same,survivabilities,[3]; [23],100%
same,Mortalities,[3]; [24],1
same,survivabilities,[3]; [24],90%
same,Mortalities,[3]; [25],1
same,survivabilities,[3]; [25],80%
same,Mortalities,[3]; [26],0
same,survivabilities,[3]; [26],80%
same,Mortalities,[3]; [27],0
same,survivabilities,[3]; [27],80%
same,Mortalities,[3]; [28],2
same,survivabilities,[3]; [28],60%
same,Mortalities,[3]; [29],1
same,survivabilities,[3]; [29],50%
same,Mortalities,[3]; [30],0
same,survivabilities,[3]; [30],50%
same,Mortalities,[3]; [31],1
same,survivabilities,[3]; [31],40%
same,Mortalities,[3]; [32],1
same,survivabilities,[3]; [32],30%
same,Mortalities,[3]; [33],7
same,survivabilities,[3]; [33],30%
same,"blood total WBC numbers, change compared to CPA control",blood WBC,−11.31%
same,"ratio of lymphocytes, change compared to CPA control",blood WBC,−23.56%
same,"ratio of monocytes, change compared to CPA control",blood WBC,13.43%
same,"ratio of neutrophils, change compared to CPA control",blood WBC,−1.09%
same,Total WBC,blood WBC; blood at sacrifice,0.41 ± 0.19 ×10^3/mm^3
same,WBC differentials: Basophils,blood WBC; blood at sacrifice,0.89 ± 0.78%
same,WBC differentials: Eosinophils,blood WBC; blood at sacrifice,0.22 ± 0.44%
same,WBC differentials: Lymphocytes,blood WBC; blood at sacrifice,14.56 ± 9.75 %
same,WBC differentials: Monocytes,blood WBC; blood at sacrifice,42.78 ± 17.33 %
same,WBC differentials: Neutrophils,blood WBC; blood at sacrifice,41.56 ± 10.64 %
same,Mortalities,[4]; 1st CPA treat,0
same,Survivalities,[4]; 1st CPA treat,100%
same,Mortalities,[4]; 2nd CPA treat,0
same,Survivalities,[4]; 2nd CPA treat,100%
same,Mortalities,[4]; At CLP (day 0),0
same,Survivalities,[4]; At CLP (day 0),100%
same,Mortalities,[4]; Day 1,0
same,Survivalities,[4]; Day 1,100%
same,Mortalities,[4]; Day 2,0
same,Survivalities,[4]; Day 2,100%
same,Mortalities,[4]; Day 3,2
same,Survivalities,[4]; Day 3,80%
same,Mortalities,[4]; Total,2
same,Survivalities,[4]; Total,80%
same,"MNPCE numbers, change compared to CPA control",[5],−10.85%
same,"PCE/(PCE+NCE), change compared to CPA control",[5],−14.79%
same,NCE,[5]; among 500 erythrocytes,379.67 ± 17.07
same,PCE,[5]; among 500 erythrocytes,120.33 ± 17.07
same,PCE/(NCE + PCE),[5]; among 500 erythrocytes,0.24 ± 0.03
same,% MNPCE,[5]; among 1000 PCEs,2.56 ± 0.57 %
